Key:
[1] = Phase 1 clinical pharmacokinetics in plasma; assay type: in vivo, human; settings: for Cmax,ss, Mean (CV%) / Tmax,ss, median [Min-Max] / AUC0-24,ss, Mean (CV%): Steady State
[2] = tested on: VEGFR and ERK activation; assay: VEGF165-stimulated activation of VEGFR and ERK in HUVEC cells; assay type: cell-based, human; settings: 50 ng/mL VEGF165, concentration-dependent
[3] = Dog plasma kinetics; assay type: in vivo
[4] = target: KDR (Homo sapiens, UniProt P35968); assay: Tyrosine kinase inhibition; assay type: biochemical
Sequence of KDR (P35968 20-1356): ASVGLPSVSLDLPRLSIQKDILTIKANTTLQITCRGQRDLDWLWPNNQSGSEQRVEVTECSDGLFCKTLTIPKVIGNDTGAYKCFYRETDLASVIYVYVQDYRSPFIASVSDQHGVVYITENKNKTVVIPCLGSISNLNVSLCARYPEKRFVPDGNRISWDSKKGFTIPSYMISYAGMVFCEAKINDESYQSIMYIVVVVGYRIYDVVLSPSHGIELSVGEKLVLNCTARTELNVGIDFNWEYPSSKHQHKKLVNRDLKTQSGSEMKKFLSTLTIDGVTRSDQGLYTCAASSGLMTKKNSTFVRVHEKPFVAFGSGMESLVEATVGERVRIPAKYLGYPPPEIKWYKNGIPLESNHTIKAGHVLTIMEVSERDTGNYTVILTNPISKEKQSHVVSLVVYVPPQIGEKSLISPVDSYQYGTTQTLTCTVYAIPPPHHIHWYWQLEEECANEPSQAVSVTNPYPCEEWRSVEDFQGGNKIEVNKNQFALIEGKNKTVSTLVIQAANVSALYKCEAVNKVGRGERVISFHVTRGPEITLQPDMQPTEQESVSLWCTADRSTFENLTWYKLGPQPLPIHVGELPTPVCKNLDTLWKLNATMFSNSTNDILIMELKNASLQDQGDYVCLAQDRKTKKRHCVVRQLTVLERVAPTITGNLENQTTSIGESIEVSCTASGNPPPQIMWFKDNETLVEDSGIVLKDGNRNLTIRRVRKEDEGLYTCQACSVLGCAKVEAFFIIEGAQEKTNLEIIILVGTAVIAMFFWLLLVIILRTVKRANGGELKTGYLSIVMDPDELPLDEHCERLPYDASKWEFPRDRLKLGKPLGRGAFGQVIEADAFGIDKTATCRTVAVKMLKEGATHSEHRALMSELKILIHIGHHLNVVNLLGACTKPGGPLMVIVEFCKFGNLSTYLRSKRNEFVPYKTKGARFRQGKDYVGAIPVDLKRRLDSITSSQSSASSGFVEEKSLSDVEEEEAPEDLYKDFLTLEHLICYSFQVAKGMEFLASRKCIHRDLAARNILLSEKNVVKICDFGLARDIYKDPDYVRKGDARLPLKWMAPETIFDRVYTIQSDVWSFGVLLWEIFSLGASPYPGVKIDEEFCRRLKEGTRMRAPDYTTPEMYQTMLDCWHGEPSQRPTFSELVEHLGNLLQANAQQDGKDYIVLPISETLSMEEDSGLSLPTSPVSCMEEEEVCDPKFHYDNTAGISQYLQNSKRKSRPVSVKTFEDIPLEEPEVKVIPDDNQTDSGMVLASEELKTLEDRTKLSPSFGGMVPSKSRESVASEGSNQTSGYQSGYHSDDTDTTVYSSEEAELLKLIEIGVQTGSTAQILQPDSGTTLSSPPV

[5] = 28-day repeated dose toxicity; assay type: in vivo, Beagle dogs
[6] = target: PDGFRβ (Homo sapiens, UniProt P09619); assay: Tyrosine kinase inhibition; assay type: biochemical
Sequence of PDGFRβ (P09619 33-1106): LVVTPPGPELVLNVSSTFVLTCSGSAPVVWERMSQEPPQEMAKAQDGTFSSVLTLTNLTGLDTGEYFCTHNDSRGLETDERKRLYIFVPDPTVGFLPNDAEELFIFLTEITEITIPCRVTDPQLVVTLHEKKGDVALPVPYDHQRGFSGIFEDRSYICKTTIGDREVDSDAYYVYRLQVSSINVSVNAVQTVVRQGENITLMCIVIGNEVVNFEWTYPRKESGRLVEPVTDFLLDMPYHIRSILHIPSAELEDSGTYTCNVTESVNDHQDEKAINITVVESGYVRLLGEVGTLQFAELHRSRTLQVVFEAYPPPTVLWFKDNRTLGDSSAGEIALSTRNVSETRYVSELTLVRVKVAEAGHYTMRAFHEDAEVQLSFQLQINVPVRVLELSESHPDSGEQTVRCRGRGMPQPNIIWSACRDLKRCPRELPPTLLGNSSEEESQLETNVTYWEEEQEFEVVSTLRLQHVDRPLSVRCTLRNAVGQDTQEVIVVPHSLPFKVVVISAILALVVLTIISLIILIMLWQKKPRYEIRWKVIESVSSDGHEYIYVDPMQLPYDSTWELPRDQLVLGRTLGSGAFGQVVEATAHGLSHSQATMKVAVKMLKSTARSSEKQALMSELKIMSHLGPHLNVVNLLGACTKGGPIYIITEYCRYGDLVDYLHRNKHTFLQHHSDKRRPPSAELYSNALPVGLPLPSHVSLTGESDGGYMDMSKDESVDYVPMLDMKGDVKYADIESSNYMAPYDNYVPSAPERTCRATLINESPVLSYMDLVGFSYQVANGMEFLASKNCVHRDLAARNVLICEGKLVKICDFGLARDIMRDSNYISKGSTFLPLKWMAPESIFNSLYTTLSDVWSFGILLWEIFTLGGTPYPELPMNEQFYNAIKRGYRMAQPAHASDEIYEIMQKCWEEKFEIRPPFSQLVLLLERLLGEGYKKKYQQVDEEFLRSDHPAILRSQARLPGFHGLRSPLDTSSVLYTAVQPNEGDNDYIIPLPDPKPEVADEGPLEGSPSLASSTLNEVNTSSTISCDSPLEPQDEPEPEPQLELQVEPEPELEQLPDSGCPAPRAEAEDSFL

[7] = Single-dose toxicity; assay type: in vivo, SD rats; settings: single oral gavage
Experimental: (§1) mg/kg. The maximum tolerated dose (MTD) was 500 mg/kg. Gastrointestinal, hepatic, and immune system toxicity may have contributed to the rat deaths.
(§2) 2.2. Dose expansion phase
(§3) […] To investigate the efficacy of HA121- 28 tablets in patients with advanced solid tumors.
(§4) This study is a single- arm, open- label, dose-escalation, and dose-expansion phase 1 clinical studywith single and multiple dosing.

[8] = tested on: A375 cells; assay: Tumor cell proliferation in vitro; assay type: cell-based, human
[9] = Single-dose toxicity; assay type: in vivo, Beagle dogs; settings: single oral dose 500 and 1000 mg/kg
Experimental: as §1, §2, §3, §4

[10] = tested on: Q-T interval; settings: single oral dose 5, 10, and 15 mg/kg

COc1cc2c(Nc3ccc(Br)cc3F)ncnc2cc1OCCCCN(C)C.Cl.Cl [HA121-28, N-(4-bromo-2-fluorophenyl)-7-(4-(dimethylamino)butoxy)-6-methoxy quinazolin-4-amine dihydrochloride]
Cmax,ss, Mean (CV%) ([1]; 200 mg (N=4)): 550.0 (229.2) ng/mL
Tmax,ss, median [Min-Max] ([1]; 200 mg (N=4)): 8 [8-8] h
AUC0-24,ss, Mean (CV%) ([1]; 300 mg (N=4)): 12969.9 (1048.1) h*ng/mL
Cmax,ss, Mean (CV%) ([1]; 300 mg (N=4)): 635.3 (30.1) ng/mL
Tmax,ss, median [Min-Max] ([1]; 300 mg (N=4)): 4 [4-4] h
AUC0-24,ss, Mean (CV%) ([1]; 450 mg (N=7)): 18460.0 (3291.4) h*ng/mL
Cmax,ss, Mean (CV%) ([1]; 450 mg (N=7)): 945.8 (189.0) ng/mL
Tmax,ss, median [Min-Max] ([1]; 450 mg (N=7)): 6 [4-8] h
AUC0-24,ss, Mean (CV%) ([1]; 600 mg (N=5)): 27965.4 (13872.8) h*ng/mL
Cmax,ss, Mean (CV%) ([1]; 600 mg (N=5)): 1453.0 (825.0) ng/mL
Tmax,ss, median [Min-Max] ([1]; 600 mg (N=5)): 4 [4-8] h
AUC0-24,ss, Mean (CV%) ([1]; 800 mg (N=3)): 23180.1 (3336.5) h*ng/mL
Cmax,ss, Mean (CV%) ([1]; 800 mg (N=3)): 1067.0 (216.4) ng/mL
Tmax,ss, median [Min-Max] ([1]; 800 mg (N=3)): 6 [4-8] h
time to steady state ([1]; multiple dosing): two
activation of VEGFR and downstream ERK [2]: significantly inhibited
AUC0-72h ([3]; 7 consecutive days (5 mg/kg)): 639 ± 69.0 ng·h/mL
AUC0-∞ ([3]; 7 consecutive days (5 mg/kg)): 655 ± 72.2 ng·h/mL
CL ([3]; 7 consecutive days (5 mg/kg)): 175 ± 21.5 mL/min/kg
Cmax ([3]; 7 consecutive days (5 mg/kg)): 30.6 ± 3.25 ng/mL
MRT0-∞ ([3]; 7 consecutive days (5 mg/kg)): 18.5 ± 1.89 h
Tmax ([3]; 7 consecutive days (5 mg/kg)): 6.17 ± 2.48 h
Vd ([3]; 7 consecutive days (5 mg/kg)): 214 ± 25.1 L/kg
t1/2 ([3]; 7 consecutive days (5 mg/kg)): 14.2 ± 1.19 h
F (oral bioavailability) ([3]; dog): 56.0%
AUC0-72h ([3]; high dose (10 mg/kg)): 837 ± 207 ng·h/mL
AUC0-∞ ([3]; high dose (10 mg/kg)): 848 ± 212 ng·h/mL
CL ([3]; high dose (10 mg/kg)): 212 ± 75.2 mL/min/kg
Cmax ([3]; high dose (10 mg/kg)): 58.9 ± 26.7 ng/mL
MRT0-72h ([3]; high dose (10 mg/kg)): 14.8 ± 1.96 h
MRT0-∞ ([3]; high dose (10 mg/kg)): 15.7 ± 2.45 h
Tmax ([3]; high dose (10 mg/kg)): 2.17 ± 0.753 h
Vd ([3]; high dose (10 mg/kg)): 197 ± 57.5 L/kg
t1/2 ([3]; high dose (10 mg/kg)): 11.0 ± 1.51 h
AUC0-72h ([3]; intravenous (2.5 mg/kg)): 489 ± 73.0 ng·h/mL
AUC0-∞ ([3]; intravenous (2.5 mg/kg)): 493 ± 73.7 ng·h/mL
C5min ([3]; intravenous (2.5 mg/kg)): 124 ± 17.6 ng/mL
CL ([3]; intravenous (2.5 mg/kg)): 86.3 ± 14.8 mL/min/kg
MRT0-72h ([3]; intravenous (2.5 mg/kg)): 10.9 ± 1.30 h
MRT0-∞ ([3]; intravenous (2.5 mg/kg)): 11.5 ± 1.51 h
Vd ([3]; intravenous (2.5 mg/kg)): 85.0 ± 27.0 L/kg
t1/2 ([3]; intravenous (2.5 mg/kg)): 11.2 ± 1.70 h
AUC0-72h ([3]; low dose (2.5 mg/kg)): 274 ± 68.2 ng·h/mL
AUC0-∞ ([3]; low dose (2.5 mg/kg)): 279 ± 70.5 ng·h/mL
CL ([3]; low dose (2.5 mg/kg)): 157 ± 37.3 mL/min/kg
Cmax ([3]; low dose (2.5 mg/kg)): 13.4 ± 2.71 ng/mL
MRT0-72h ([3]; low dose (2.5 mg/kg)): 16.3 ± 2.03 h
MRT0-∞ ([3]; low dose (2.5 mg/kg)): 17.6 ± 2.45 h
Tmax ([3]; low dose (2.5 mg/kg)): 6.50 ± 3.51 h
Vd ([3]; low dose (2.5 mg/kg)): 160 ± 41.3 L/kg
t1/2 ([3]; low dose (2.5 mg/kg)): 11.8 ± 1.00 h
AUC0-72h ([3]; medium dose (5 mg/kg)): 393 ± 74.0 ng·h/mL
AUC0-∞ ([3]; medium dose (5 mg/kg)): 398 ± 75.3 ng·h/mL
CL ([3]; medium dose (5 mg/kg)): 217 ± 42.8 mL/min/kg
Cmax ([3]; medium dose (5 mg/kg)): 24.8 ± 3.90 ng/mL
MRT0-72h ([3]; medium dose (5 mg/kg)): 14.3 ± 1.36 h
MRT0-∞ ([3]; medium dose (5 mg/kg)): 15.2 ± 1.57 h
Tmax ([3]; medium dose (5 mg/kg)): 2.17 ± 0.753 h
Vd ([3]; medium dose (5 mg/kg)): 217 ± 53.6 L/kg
t1/2 ([3]; medium dose (5 mg/kg)): 11.5 ± 1.16 h
IC50 [4]: 35.7 nM
no observed adverse effect level (NOAEL) ([5]; 28 d, Beagle dog): 12 mg/kg
highest non-severely toxic dose (HNSTD) ([5]; oral, four consecutive weeks): 12 mg/kg
IC50 [6]: 165 nM
maximum tolerated dose (MTD) [7]: 500 mg/kg
IC50 [8]: 716 ± 154 nM
MTD [9]: 1000 mg/kg
Q-T interval and corrected Q-T interval [10]: mild prolongation

Source: publication PMC11868595, “Safety, pharmacokinetics and efficacy of HA121-28 in patients with advanced solid tumors and RET fusion-positive non-small-cell lung cancer: a multicenter, open-label, single-arm phase 1/2 trial” (Signal Transduction and Targeted Therapy, 2025)
